Here are results for three compounds from PubChem BioAssay AID1963425 (Molecular Pharmacology Branch, DTP, NCI, 2024).

This test has as its system 323965-272-R-J2-PDC complex spheroid growth, % test/control. The experiment in a line: Anticancer human tumor 323965-272-R-J2-PDC patient-derived pancreatic carcinoma cell line growth inhibition [Asc]. Conditions: for viability, T/C: stronger effect = lower value. On the procedure:
Multicellular complex tumor spheroid response to apoptosis pathway targeting inhibitors Alrizomadlin, Pelcitoclax, and Dasminapant in combination with a variety of drugs and investigational agents in selected tumor cell lines
The MDM2 inhibitor alrizomadlin, the Bcl-2/Bcl-xL inhibitor pelcitoclax, and the IAPs inhibitor dasminapant were evaluated both individually and in combination with standard of care and investigational anticancer small molecules within a complex spheroid model of solid tumors. . Complex spheroids include a stromal component modeled by human endothelial cells (HUVEC) and fibroblasts modeled by human mesenchymal stem cells (MSCs). The concentration ranges selected for each drug and investigational agent were based upon clinically achievable concentrations if the clinical Cmax of the agent was known.
Compounds. The drugs and investigational agents: alrizomadlin (APG-115; NSC831270), pelcitoclax (APG-1252; NSC835773), dasminapant (APG-1387;NSC834197), TAK-243 (NSC785004), copanlisib (NSC809693), olaparib (NSC753686), talazoparib (NSC767125), cobimetinib (NSC 768068), eltanexor (KPT-8602, NSC 794443), abemaciclib (NSC 768073), sotorasib (NSC818433), adagrasib (NSC 831453), MRTX-1133 (NSC 836407), Iadademestat (ORY1001, NSC 806812), and RMC-4630 (NSC839698), were obtained from the NCI Developmental Therapeutics Program Chemical Repository. The FDA-approved anticancer drug set is available from the Developmental Therapeutics Program at https://dtp.cancer.gov/organization/dscb/obtaining/available plates.htm. […] The stock solutions were prepared in dimethyl sulfoxide (DMSO, Sigma-Aldrich, St. Louis, MO, cat. D2650) at 800-fold the tested concentration and stored at -70 degrees C prior to their use. All drugs and investigational agents were tested over a range starting from a high concentration at or near the clinical Cmax and decreasing in half-log increments. If the clinical Cmax for an agent had not been determined, the highest concentration tested was 10 microM.
The patient-derived cancer (PDC) cell lines include five colon adenocarcinomas: 186277-243-T-J2-PDC, 616215-338-R-J1-PDC, 439559-082-T-J2-PDC, 463943-066-T-J2-PDC, and 519858-162-T-J1-PDC; three pancreatic carcinomas: 323965-272-R-J2-PDC, 521955-158-R6-J3-PDC, and 521955-158-R2-J5-PDC; two uterine sarcomas: 327498-152-R-J2-PDC and 993429-296-R-J1-PDC; two rhabdomyosarcomas: 755483-174-R-J1-PDC and 772245-204-R-J1-PDC; two soft tissue sarcomas: 126254-015-R-J1-PDC and 494315-158-R-J1-PDC; two malignant fibrous histiocytomas: 317291-083-R-J1-PDC and 596521-263-R-J1-PDC; two breast carcinomas: 171881-019-R-J1-PDC and 885512-296-R-J2-PDC; and one ovarian carcinoma: 6556581-035-R-J-PDC were obtained from the NCI PDMR, (https://pdmr.cancer.gov). The established cell lines HSSY-2 synovial sarcoma (RRID:CVCL 8719), SYO-1 synovial sarcoma (RRID:CVCL_7146), MPNST malignant peripheral neural sheath tumor were obtained from the Sloan Kettering Institute. The following established cell lines were purchased from the American Type Culture Collection (ATCC, Manassas, VA), Sor the received from the NCI repository:, PANC-1 pancreatic carcinoma (CRL-1469, RRID:CVCL_0480), OVCAR-5 ovarian carcinoma (RRID:CVCL_1628), OVCAR-8 ovarian carcinoma (RRID:CVCL_1629), , MCF-7 breast carcinoma (CRL-12584, RRID:CVCL_0031), MDA-MB-231 breast carcinoma (CRL-12532, RRID:CVCL_0062), NCI-H1876 small cell lung carcinoma (CRL-5902, RRID:CVCL_1503), NCI-H510A small cell lung carcinoma (HTB-184, RRID:CVCL_1565), NCI-H1417 (CRL-5869, RRID:CVCL_1469), and NCI-H196 small cell lung carcinoma (CRL-5823, RRID:CVCL_1509). Dr. Peter Houghton (Greehey Children's Cancer Research Institute, University of Texas Health Science Center, San Antonio, TX) provided Rh-18 rhabdomyosarcoma (RRID:CVCL_1659). Pooled donor human umbilical vein endothelial cells (HUVEC, Lonza, cat. CC-2519) and human mesenchymal stem cells (hMSC, Lonza, cat. PT-2501) were purchased from Lonza (Walkersville, MD).
Cell Culture. […]

The structures appear in SMILES notation. Several values for one entry are separate records, joined by “and”; a condition that tells them apart may be missing. Equal entries are not always repeated.
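Note: compound exposure lasted 7 days starting three days after spheroid seeding.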
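Throughout, for viability, T/C: 100% = DMSO vehicle control wells with viability set relative to vehicle.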

In general, viability, T/C refers to the ratio of treated to control. The IC50 is the concentration needed to halve the response being measured. As to `Cc1c(S(C)(=O)=O)c(-c2cc(F)cc(N3CCN(c4ccc(NS(=O)(=O)c5ccc(NC(CCN6CCC(C(=O)OCCCP(=O)(O)O)CC6)CSc6ccccc6)c(S(=O)(=O)C(F)(F)F)c5)cc4)CC3)c2)c(-c2ccc(Cl)cc2)n1C(C)C` (stereo not given), the viability, T/C by setting is: (compound 0.0316 µM) 107% [middle of 7 runs]; (compound 0.1 µM) 107% [middle of 7 runs]; (compound 0.316 µM) 98.3% [middle of 7 runs]; (compound 3.16 µM) 84.5% [middle of 7 runs]; (compound 10 µM) 76.9% [middle of 7 runs]. Besides, under “compound alone, run of 11/07/2022”, the IC50 is > 10000 nM.

As for `COc1c(OCCCN2CCOCC2)ccc2c3n(c(=NC(=O)c4cnc(N)nc4)nc12)CCN3` + Cc1c(S(C)(=O)=O)c(-c2cc(F)cc(N3CCN(c4ccc(NS(=O)(=O)c5ccc(NC(CCN6CCC(C(=O)OCCCP(=O)(O)O)CC6)CSc6ccccc6)c(S(=O)(=O)C(F)(F)F)c5)cc4)CC3)c2)c(-c2ccc(Cl)cc2)n1C(C)C, the IC50 (curve of first compound, second compound 0.0316 µM) came to 166 nM; the IC50 (curve of first compound, second compound 0.1 µM) stood at 180 nM; the IC50 (curve of first compound, second compound 0.316 µM) came out at 116 nM; the half-inhibitory concentration (IC50) (curve of first compound, second compound 1 µM) was 106 nM; the half-inhibitory concentration (IC50) (curve of first compound, second compound 3.16 µM) amounted to 77.1 nM; the IC50 (curve of first compound, second compound 10 µM) worked out at 36.5 nM. Moreover, the viability, T/C (second compound 0.0316 µM, first compound 0.00316 µM) is 110%; the viability, T/C (second compound 0.0316 µM, first compound 0.01 µM) was 97.1%; the viability, T/C (second compound 0.0316 µM, first compound 0.0316 µM) is 86.4%; the viability, T/C (second compound 0.0316 µM, first compound 0.1 µM) was 58.3%; the viability, T/C (second compound 0.0316 µM, first compound 0.316 µM) was 37.9%; the viability, T/C (second compound 0.0316 µM, first compound 1 µM) was 24.8%. Moreover, the viability, T/C runs as follows: (second compound 0.1 µM, first compound 0.00316 µM) 100%; (second compound 0.1 µM, first compound 0.01 µM) 99.5%; (second compound 0.1 µM, first compound 0.0316 µM) 73.8%; (second compound 0.1 µM, first compound 0.1 µM) 60.1%; (second compound 0.1 µM, first compound 0.316 µM) 42.4%; (second compound 0.1 µM, first compound 1 µM) 25.8%. Further, the viability, T/C is 107% (second compound 0.316 µM, first compound 0.00316 µM); 98.9% (second compound 0.316 µM, first compound 0.01 µM); 71.5% (second compound 0.316 µM, first compound 0.0316 µM); 49% (second compound 0.316 µM, first compound 0.1 µM); 42.3% (second compound 0.316 µM, first compound 0.316 µM); 23.9% (second compound 0.316 µM, first compound 1 µM). The viability, T/C (second compound 1 µM, first compound 0.00316 µM) was 94.1%; the viability, T/C (second compound 1 µM, first compound 0.01 µM) was 81.8%; the viability, T/C (second compound 1 µM, first compound 0.0316 µM) was 74.9%; the viability, T/C (second compound 1 µM, first compound 0.1 µM) is 49.9%; the viability, T/C (second compound 1 µM, first compound 0.316 µM) is 32.4%; the viability, T/C (second compound 1 µM, first compound 1 µM) was 23.1%. Moreover, the viability, T/C by setting is: (second compound 3.16 µM, first compound 0.00316 µM) 73.2%; (second compound 3.16 µM, first compound 0.01 µM) 71.5%; (second compound 3.16 µM, first compound 0.0316 µM) 63.2%; (second compound 3.16 µM, first compound 0.1 µM) 46%; (second compound 3.16 µM, first compound 0.316 µM) 29.4%; (second compound 3.16 µM, first compound 1 µM) 21.3%. Also, the viability, T/C by setting is: (second compound 10 µM, first compound 0.00316 µM) 73.2%; (second compound 10 µM, first compound 0.01 µM) 67.7%; (second compound 10 µM, first compound 0.0316 µM) 48.1%; (second compound 10 µM, first compound 0.1 µM) 39.4%; (second compound 10 µM, first compound 0.316 µM) 28.9%; (second compound 10 µM, first compound 1 µM) 19.3%.

Take `COc1c(OCCCN2CCOCC2)ccc2c3n(c(=NC(=O)c4cnc(N)nc4)nc12)CCN3`: the viability, T/C is, setting by setting: (compound 0.00316 µM) 100% and 85.6% and 103%; (compound 0.01 µM) 99.3% and 80.7% and 93%; (compound 0.0316 µM) 79.6% and 65.5% and 71.6%; (compound 0.1 µM) 49.5% and 56.1% and 55.9%; (compound 0.316 µM) 32.8% and 41.2% and 33.7%; (compound 1 µM) 30.5% and 33.6% and 25.3%. In addition, the IC50 (curve of compound) is 154 nM and 119 nM and 92.1 nM.
